Experimental data taken from US8110596B2, “Triprenyl phenol compound, process for production of triprenyl phenol compound, and thrombolysis enhancer” (Tokyo University of Agriculture and Technology TLO Co., Ltd., priority 2006, dated 2012).

Target: T1, Glu-plg (Homo sapiens, UniProt P00747)
T1 construct: 0.1 mM VLK-pNA, 50 nM Glu-plg and 50 U/ml u-PA
Test: Plasminogen (plg) activation enhancing activity by urokinase catalysis, VLK-pNA chromogenic assay (Example 30, Table 24)
Type: biochemical
Conditions: for Maximum enhancing activity: Concentration by mole / Maximum enhancing activity: Concentration by weight: concentration at which enhancement of plasminogen activation reaches the maximum; for 10-Fold enhancing activity: Concentration by mole / 10-Fold enhancing activity: Concentration by weight: concentration giving 10-fold enhancement of plasminogen activation vs control without SMTP compound (=1); for 10-Fold enhancing activity: Concentration by mole / 10-Fold enhancing activity: Concentration by weight / plasminogen activation enhancing activity compared to orniplabin: 0.1 mM VLK-pNA, 50 nM Glu-plg, 50 U/ml u-PA, 37° C.; for Maximum enhancing activity: Multiplication factor: fold enhancement of plasminogen activation at maximum, control without SMTP compound = 1
Protocol: For the various triprenyl phenol compounds obtained as described above, the performance was evaluated with regard to the thrombolytic activity as the activity of promoting the plasminogen (plg) activation by urokinase catalysis.
The property of plasmin of cutting the peptide bond of a synthetic chromogenic substrate VLK-pNA (Val-Leu-Lys-p-nitroanilide) to generate p-nitroaniline (pNA), was used to measure the yellow coloration of pNA which is absorbed at 405 nm, and thereby the plasminogen activation enhancing activity of a sample is measured. An MTP-500 type microplate reader (Corona Electric Co., Ltd.) was employed as the measuring device, and measurement was performed with a 96-well round bottom microplate.
The measurement was performed under the conditions of kinetic measurement at 37° C. with dual wavelength of 405 nm (activity) to 595 nm (background), for 60 times in every minute.
The purified samples were each made into a DMSO solution or an aqueous solution of sodium salt. This solution was diluted with TBS/T (50 mM Tris-HCl, 100 mM NaCl and 0.01% Tween80, pH 7.4) to provide a sample for measurement.
Furthermore, as a blank, a reaction was performed using a reaction liquid not containing u-PA, and the value obtained therefrom was subtracted from the values obtained from the reactions described above. The absorbance was plotted against the square of time, and the slope was defined as the initial rate of reaction. A reaction solution not added with any triprenyl phenol compound was taken as the control and was compared with the samples, to determine the degree of activity of the respective compounds.
The term “concentration of 10-fold enhancing activity” indicates the concentration at which 10-fold enhancing activity is obtained in the case where the value obtained by using a reaction solution not containing any SMTP compound (control) is taken as 1. The term “maximum enhancing activity” indicates the concentration at which the enhancement of plasminogen activation by an SMTP compound reaches the maximum.

T1 sequence (P00747 20-810 limits assumed): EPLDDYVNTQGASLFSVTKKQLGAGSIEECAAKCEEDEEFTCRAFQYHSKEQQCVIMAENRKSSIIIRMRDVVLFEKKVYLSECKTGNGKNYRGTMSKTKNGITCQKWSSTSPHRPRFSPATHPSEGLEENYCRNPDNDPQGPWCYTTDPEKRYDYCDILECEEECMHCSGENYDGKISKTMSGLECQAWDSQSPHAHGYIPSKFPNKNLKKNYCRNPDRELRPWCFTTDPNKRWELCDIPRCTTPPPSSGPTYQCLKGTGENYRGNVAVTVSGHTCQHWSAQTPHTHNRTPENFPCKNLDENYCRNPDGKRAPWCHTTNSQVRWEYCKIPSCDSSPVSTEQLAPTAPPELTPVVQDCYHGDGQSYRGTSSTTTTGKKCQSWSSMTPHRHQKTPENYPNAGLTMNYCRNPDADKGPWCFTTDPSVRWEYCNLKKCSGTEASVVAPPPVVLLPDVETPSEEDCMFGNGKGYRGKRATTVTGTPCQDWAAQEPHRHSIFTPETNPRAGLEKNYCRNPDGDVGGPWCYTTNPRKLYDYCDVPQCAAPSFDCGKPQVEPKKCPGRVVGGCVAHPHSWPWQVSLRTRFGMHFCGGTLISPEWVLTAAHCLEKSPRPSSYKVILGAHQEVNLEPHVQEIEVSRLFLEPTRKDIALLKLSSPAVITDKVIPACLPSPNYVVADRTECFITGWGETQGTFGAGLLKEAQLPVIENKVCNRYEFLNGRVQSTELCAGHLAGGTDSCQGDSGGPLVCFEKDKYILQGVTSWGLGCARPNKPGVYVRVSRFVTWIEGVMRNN

CC(C)=CCC/C(C)=C/CC[C@]1(C)Oc2c(c(O)cc3c2CN(CCC[C@@H](C(=O)O)N2Cc4c(cc(O)c5c4O[C@@](C)(CC/C=C(\C)CCC=C(C)C)[C@@H](O)C5)C2=O)C3=O)C[C@@H]1O [Orniplabin, reference compound]
Maximum enhancing activity: Concentration by mole: 90 µM
Maximum enhancing activity: Concentration by weight: 78 µg/mL
10-Fold enhancing activity: Concentration by mole: 65 μM
10-Fold enhancing activity: Concentration by weight: 56 μg/ml
Maximum enhancing activity: Multiplication factor: 100

CC(C)=CCC/C(C)=C/CC[C@]1(C)Oc2c(c(O)cc3c2CN(c2ccc(C(=O)O)cc2)C3=O)C[C@@H]1O [Compound I-2]
plasminogen activation enhancing activity compared to orniplabin: equivalent or higher
Maximum enhancing activity: Concentration by mole: 160 µM
Maximum enhancing activity: Concentration by weight: 81 µg/mL
10-Fold enhancing activity: Concentration by mole: 83 μM
10-Fold enhancing activity: Concentration by weight: 42 μg/ml
Maximum enhancing activity: Multiplication factor: 126

CC(C)=CCC/C(C)=C/CC[C@]1(C)Oc2c(c(O)cc3c2CN(c2ccc(S(=O)(=O)O)cc2)C3=O)C[C@@H]1O [Compound I-19]
Maximum enhancing activity: Concentration by mole: 300 µM
Maximum enhancing activity: Concentration by weight: 163 µg/mL
10-Fold enhancing activity: Concentration by mole: 137 μM
10-Fold enhancing activity: Concentration by weight: 74 μg/ml
Maximum enhancing activity: Multiplication factor: 60

CC(C)=CCC/C(C)=C/CC[C@]1(C)Oc2c(c(O)cc3c2CN(c2cccc(C(=O)O)c2O)C3=O)C[C@@H]1O [Compound I-8]
plasminogen activation enhancing activity compared to orniplabin: equivalent or higher
Maximum enhancing activity: Concentration by mole: 100 µM
Maximum enhancing activity: Concentration by weight: 52 µg/mL
10-Fold enhancing activity: Concentration by mole: 71 μM
10-Fold enhancing activity: Concentration by weight: 37 μg/ml
Maximum enhancing activity: Multiplication factor: 91

CC(C)=CCC/C(C)=C/CC[C@]1(C)Oc2c(c(O)cc3c2CN([C@@H](C(=O)O)c2ccc(O)cc2)C3=O)C[C@@H]1O [Compound I-23]
Maximum enhancing activity: Concentration by mole: 402 µM
Maximum enhancing activity: Concentration by weight: 215 µg/mL
10-Fold enhancing activity: Concentration by mole: 331 μM
10-Fold enhancing activity: Concentration by weight: 177 μg/ml
Maximum enhancing activity: Multiplication factor: 22

CC(C)=CCC/C(C)=C/CC[C@]1(C)Oc2c(c(O)cc3c2CN(c2ccc(C(=O)O)c(O)c2)C3=O)C[C@@H]1O [Compound I-5]
plasminogen activation enhancing activity compared to orniplabin: equivalent or higher
Maximum enhancing activity: Concentration by mole: 200 µM
Maximum enhancing activity: Concentration by weight: 101 µg/mL
10-Fold enhancing activity: Concentration by mole: 100 μM
10-Fold enhancing activity: Concentration by weight: 52 μg/ml
Maximum enhancing activity: Multiplication factor: 158

CC(C)=CCC/C(C)=C/CC[C@]1(C)Oc2c(c(O)cc3c2CN(c2c(O)cccc2C(=O)O)C3=O)C[C@@H]1O [Compound I-7]
Maximum enhancing activity: Concentration by mole: 290 µM
Maximum enhancing activity: Concentration by weight: 151 µg/mL
10-Fold enhancing activity: Concentration by mole: 173 μM
10-Fold enhancing activity: Concentration by weight: 90 μg/ml
Maximum enhancing activity: Multiplication factor: 37

CC(C)=CCC/C(C)=C/CC[C@]1(C)Oc2c(c(O)cc3c2CN(c2ccc(O)c(C(=O)O)c2)C3=O)C[C@@H]1O [Compound I-9]
Maximum enhancing activity: Concentration by mole: 120 µM
Maximum enhancing activity: Concentration by weight: 63 µg/mL
Maximum enhancing activity: Multiplication factor: 8

CC(C)=CCC/C(C)=C/CC[C@]1(C)Oc2c(c(O)cc3c2CN(c2ccc(O)cc2C(=O)O)C3=O)C[C@@H]1O [Compound I-11]
Maximum enhancing activity: Concentration by mole: 200 µM
Maximum enhancing activity: Concentration by weight: 101 µg/mL
10-Fold enhancing activity: Concentration by mole: 127 μM
10-Fold enhancing activity: Concentration by weight: 66 μg/ml
Maximum enhancing activity: Multiplication factor: 65

CC(C)=CCC/C(C)=C/CC[C@]1(C)Oc2c(c(O)cc3c2CN(c2cc(C(=O)O)ccc2O)C3=O)C[C@@H]1O [Compound I-10]
Maximum enhancing activity: Concentration by mole: 290 µM
Maximum enhancing activity: Concentration by weight: 151 µg/mL
10-Fold enhancing activity: Concentration by mole: 188 μM
10-Fold enhancing activity: Concentration by weight: 98 μg/ml
Maximum enhancing activity: Multiplication factor: 43

CC(C)=CCC/C(C)=C/CC[C@]1(C)Oc2c(c(O)cc3c2CN([C@@H](Cc2ccc(O)cc2)C(=O)O)C3=O)C[C@H]1O [Compound I-26]
plasminogen activation enhancing activity compared to orniplabin: equivalent or higher
Maximum enhancing activity: Concentration by mole: 200 µM
Maximum enhancing activity: Concentration by weight: 110 µg/mL
10-Fold enhancing activity: Concentration by mole: 77 μM
10-Fold enhancing activity: Concentration by weight: 42 μg/ml
Maximum enhancing activity: Multiplication factor: 76

CC(C)=CCC/C(C)=C/CC[C@]1(C)Oc2c(c(O)cc3c2CN([C@@H](C(=O)O)c2ccccc2)C3=O)C[C@@H]1O [Compound I-21]
Maximum enhancing activity: Concentration by mole: 289 µM
Maximum enhancing activity: Concentration by weight: 150 µg/mL
10-Fold enhancing activity: Concentration by mole: 104 μM
10-Fold enhancing activity: Concentration by weight: 54 μg/ml
Maximum enhancing activity: Multiplication factor: 44

CC(C)=CCC/C(C)=C/CC[C@]1(C)Oc2c(c(O)cc3c2CN([C@H](C(=O)O)c2ccc(O)cc2)C3=O)C[C@@H]1O [Compound I-22]
Maximum enhancing activity: Concentration by mole: 299 µM
Maximum enhancing activity: Concentration by weight: 160 µg/mL
10-Fold enhancing activity: Concentration by mole: 211 μM
10-Fold enhancing activity: Concentration by weight: 113 μg/ml
Maximum enhancing activity: Multiplication factor: 18

CC(C)=CCC/C(C)=C/CC[C@]1(C)Oc2c(c(O)cc3c2CN(c2ccccc2C(=O)O)C3=O)C[C@@H]1O [Compound I-4]
Maximum enhancing activity: Concentration by mole: 200 µM
Maximum enhancing activity: Concentration by weight: 101 µg/mL
10-Fold enhancing activity: Concentration by mole: 133 μM
10-Fold enhancing activity: Concentration by weight: 67 μg/ml
Maximum enhancing activity: Multiplication factor: 51

CC(C)=CCC/C(C)=C/CC[C@]1(C)Oc2c(c(O)cc3c2CN(c2ccc(C(=O)O)cc2O)C3=O)C[C@@H]1O [Compound I-6]
Maximum enhancing activity: Concentration by mole: 290 µM
Maximum enhancing activity: Concentration by weight: 151 µg/mL
10-Fold enhancing activity: Concentration by mole: 131 μM
10-Fold enhancing activity: Concentration by weight: 68 μg/ml
Maximum enhancing activity: Multiplication factor: 65

CC(C)=CCC/C(C)=C/CC[C@]1(C)Oc2c(c(O)cc3c2CN(c2cccc(C(=O)O)c2)C3=O)C[C@@H]1O [Compound I-3]
Maximum enhancing activity: Concentration by mole: 300 µM
Maximum enhancing activity: Concentration by weight: 151 µg/mL
10-Fold enhancing activity: Concentration by mole: 202 μM
10-Fold enhancing activity: Concentration by weight: 102 μg/ml
Maximum enhancing activity: Multiplication factor: 52

CC(C)=CCC/C(C)=C/CC[C@]1(C)Oc2c(c(O)cc3c2CN([C@H](C(=O)O)c2ccccc2)C3=O)C[C@@H]1O [Compound I-20]
plasminogen activation enhancing activity compared to orniplabin: equivalent or higher
Maximum enhancing activity: Concentration by mole: 289 µM
Maximum enhancing activity: Concentration by weight: 150 µg/mL
10-Fold enhancing activity: Concentration by mole: 89 μM
10-Fold enhancing activity: Concentration by weight: 46 μg/ml
Maximum enhancing activity: Multiplication factor: 402

CC(C)=CCC/C(C)=C/CC[C@]1(C)Oc2c(c(O)cc3c2CN([C@H](C(=O)O)c2cccc(O)c2)C3=O)C[C@@H]1O (racemic) [Compound I-25]
Maximum enhancing activity: Concentration by mole: 402 µM
Maximum enhancing activity: Concentration by weight: 215 µg/mL
10-Fold enhancing activity: Concentration by mole: 230 μM
10-Fold enhancing activity: Concentration by weight: 123 μg/ml
Maximum enhancing activity: Multiplication factor: 29
